Test results: PubChem BioAssay (NCI)
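Each compound was tested at five concentrations against cells in 96-well plates for 48 hours. Here, GI50 denotes the concentration required for 50% inhibition of growth. TGI: concentration producing complete growth inhibition.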

Columns and labels:
Assay in all cases: inhibition of tumour cell growth, NCI panel, 48 h
NCI-H522 lung = tested on: NCI-H522 lung
SK-OV-3 ovarian = tested on: SK-OV-3 ovarian
A549 NSCLC = tested on: A549 NSCLC
DU-145 prostate = tested on: DU-145 prostate
COLO 205 colon = tested on: COLO 205 colon
SF-295 CNS = tested on: SF-295 CNS
NCI-H226 lung = tested on: NCI-H226 lung
OVCAR-8 ovarian = tested on: OVCAR-8 ovarian
K-562 leukemia = tested on: K-562 leukemia
NCI-H460 lung = tested on: NCI-H460 lung
SN12C renal = tested on: SN12C renal
HCC-2998 colon = tested on: HCC-2998 colon
RXF 393 renal = tested on: RXF 393 renal
PC-3 prostate = tested on: PC-3 prostate
KM12 colon = tested on: KM12 colon
SW-620 colon = tested on: SW-620 colon
M14 melanoma = tested on: M14 melanoma
MDA-N = tested on: MDA-N
MCF7 breast = tested on: MCF7 breast
OVCAR-3 ovarian = tested on: OVCAR-3 ovarian
RPMI-8226 leukemia = tested on: RPMI-8226 leukemia
NCI/ADR-RES ovarian = tested on: NCI/ADR-RES ovarian
SNB-75 CNS = tested on: SNB-75 CNS
U251 CNS = tested on: U251 CNS
IGROV1 ovarian = tested on: IGROV1 ovarian
HL-60(TB) leukemia = tested on: HL-60(TB) leukemia
NCI-H23 lung = tested on: NCI-H23 lung
HCT-15 colon = tested on: HCT-15 colon
SK-MEL-2 melanoma = tested on: SK-MEL-2 melanoma
CCRF-CEM leukemia = tested on: CCRF-CEM leukemia
SK-MEL-5 melanoma = tested on: SK-MEL-5 melanoma
SF-539 CNS = tested on: SF-539 CNS
UACC-257 melanoma = tested on: UACC-257 melanoma
OVCAR-4 ovarian = tested on: OVCAR-4 ovarian
EKVX NSCLC = tested on: EKVX NSCLC
HOP-92 NSCLC = tested on: HOP-92 NSCLC
SNB-19 CNS = tested on: SNB-19 CNS
MOLT-4 leukemia = tested on: MOLT-4 leukemia
TK-10 renal = tested on: TK-10 renal
SR leukemia = tested on: SR leukemia
HT29 colon = tested on: HT29 colon
CAKI-1 renal = tested on: CAKI-1 renal
HOP-62 NSCLC = tested on: HOP-62 NSCLC
SK-MEL-28 melanoma = tested on: SK-MEL-28 melanoma
UACC-62 melanoma = tested on: UACC-62 melanoma
UO-31 renal = tested on: UO-31 renal
MALME-3M melanoma = tested on: MALME-3M melanoma
BT-549 breast = tested on: BT-549 breast
SF-268 CNS = tested on: SF-268 CNS
OVCAR-5 ovarian = tested on: OVCAR-5 ovarian
ACHN renal = tested on: ACHN renal
HCT-116 colon = tested on: HCT-116 colon
786-0 renal = tested on: 786-0 renal
A498 renal = tested on: A498 renal
LOX IMVI melanoma = tested on: LOX IMVI melanoma
MDA-MB-231 breast = tested on: MDA-MB-231 breast
MDA-MB-435 = tested on: MDA-MB-435
T-47D breast = tested on: T-47D breast
HS 578T breast = tested on: HS 578T breast

For `N#C/C(=C\c1cc(Br)c(O)c(Br)c1)c1ccccn1`, the TGI (NCI-H522 lung) was > 100 µM, the TGI (SK-OV-3 ovarian) was > 100 µM and the TGI (A549 NSCLC) was > 100 µM. The TGI (DU-145 prostate) was > 100 µM, the TGI (COLO 205 colon) was > 100 µM and the TGI (SF-295 CNS) was > 100 µM. The TGI (NCI-H226 lung) was > 100 µM, the TGI (OVCAR-8 ovarian) was > 100 µM and the TGI (K-562 leukemia) was > 100 µM. The TGI (NCI-H460 lung) was > 100 µM, the TGI (SN12C renal) was > 100 µM and the TGI (HCC-2998 colon) was > 100 µM. The TGI (RXF 393 renal) was > 100 µM, the TGI (PC-3 prostate) was > 100 µM and the TGI (KM12 colon) was > 100 µM. The TGI (SW-620 colon) was > 100 µM, the TGI (M14 melanoma) was > 100 µM and the TGI (MDA-N) was > 100 µM. The TGI (MCF7 breast) was > 100 µM, the TGI (OVCAR-3 ovarian) was > 100 µM and the TGI (RPMI-8226 leukemia) was > 100 µM. For the same compound, the TGI (NCI/ADR-RES ovarian) was > 100 µM, the TGI (SNB-75 CNS) was > 100 µM and the TGI (U251 CNS) was 60 µM. For the same compound, the TGI (IGROV1 ovarian) was > 100 µM, the TGI (HL-60(TB) leukemia) was > 100 µM and the TGI (NCI-H23 lung) was > 100 µM. The TGI (HCT-15 colon) was > 100 µM, the TGI (SK-MEL-2 melanoma) was > 100 µM and the TGI (CCRF-CEM leukemia) was > 100 µM. The TGI (SK-MEL-5 melanoma) was > 100 µM, the TGI (SF-539 CNS) was > 100 µM and the TGI (UACC-257 melanoma) was > 100 µM. For the same compound, the TGI (OVCAR-4 ovarian) was > 100 µM, the TGI (EKVX NSCLC) was > 100 µM and the TGI (HOP-92 NSCLC) was 46.2 µM. For the same compound, the TGI (SNB-19 CNS) was > 100 µM, the TGI (MOLT-4 leukemia) was > 100 µM and the TGI (TK-10 renal) was > 100 µM. The TGI (SR leukemia) was > 100 µM, the TGI (HT29 colon) was > 100 µM and the TGI (CAKI-1 renal) was > 100 µM. The TGI (HOP-62 NSCLC) was > 100 µM, the TGI (SK-MEL-28 melanoma) was > 100 µM and the TGI (UACC-62 melanoma) was > 100 µM. The TGI (UO-31 renal) was > 100 µM, the TGI (MALME-3M melanoma) was 68.3 µM and the TGI (BT-549 breast) was > 100 µM. For the same compound, the TGI (SF-268 CNS) was > 100 µM, the TGI (OVCAR-5 ovarian) was > 100 µM and the TGI (ACHN renal) was > 100 µM. For the same compound, the TGI (HCT-116 colon) was > 100 µM and the TGI (786-0 renal) was > 100 µM.
With `FC(F)(F)CNc1nccc(-c2cnn3ncccc23)n1` the GI50 (NCI-H522 lung) was 9.91 µM, the TGI (NCI-H522 lung) was > 25 µM and the GI50 (SK-OV-3 ovarian) was > 25 µM. The TGI (SK-OV-3 ovarian) was > 25 µM, the GI50 (A549 NSCLC) was 10.3 µM and the TGI (A549 NSCLC) was > 25 µM. For the same compound, the GI50 (DU-145 prostate) was 12 µM, the TGI (DU-145 prostate) was > 25 µM and the GI50 (COLO 205 colon) was 8.58 µM. The TGI (COLO 205 colon) was > 25 µM, the GI50 (SF-295 CNS) was 11.9 µM and the TGI (SF-295 CNS) was > 25 µM. For the same compound, the GI50 (NCI-H226 lung) was 12.6 µM, the TGI (NCI-H226 lung) was > 25 µM and the GI50 (OVCAR-8 ovarian) was 8.58 µM. For the same compound, the TGI (OVCAR-8 ovarian) was > 25 µM, the GI50 (K-562 leukemia) was > 25 µM and the TGI (K-562 leukemia) was > 25 µM. The GI50 (NCI-H460 lung) was 10.2 µM, the TGI (NCI-H460 lung) was > 25 µM and the GI50 (SN12C renal) was 14.5 µM. For the same compound, the TGI (SN12C renal) was > 25 µM, the GI50 (HCC-2998 colon) was > 25 µM and the TGI (HCC-2998 colon) was > 25 µM. The GI50 (RXF 393 renal) was 4.86 µM, the TGI (RXF 393 renal) was 12.4 µM and the GI50 (PC-3 prostate) was 24.5 µM. The TGI (PC-3 prostate) was > 25 µM, the GI50 (KM12 colon) was 9.54 µM and the TGI (KM12 colon) was > 25 µM. The GI50 (SW-620 colon) was 10.9 µM, the TGI (SW-620 colon) was > 25 µM and the GI50 (M14 melanoma) was 11.5 µM. For the same compound, the TGI (M14 melanoma) was > 25 µM, the GI50 (MCF7 breast) was 7.3 µM and the TGI (MCF7 breast) was > 25 µM. The GI50 (OVCAR-3 ovarian) was 10.5 µM, the TGI (OVCAR-3 ovarian) was > 25 µM and the GI50 (RPMI-8226 leukemia) was > 17.5 µM. For the same compound, the TGI (RPMI-8226 leukemia) was > 25 µM, the GI50 (NCI/ADR-RES ovarian) was 13.6 µM and the TGI (NCI/ADR-RES ovarian) was > 25 µM. The GI50 (A498 renal) was 3.85 µM, the TGI (A498 renal) was > 22.6 µM and the GI50 (SNB-75 CNS) was 11.3 µM. The TGI (SNB-75 CNS) was > 25 µM, the GI50 (U251 CNS) was 9.82 µM and the TGI (U251 CNS) was > 25 µM. For the same compound, the GI50 (IGROV1 ovarian) was 11.9 µM, the TGI (IGROV1 ovarian) was > 25 µM and the GI50 (HL-60(TB) leukemia) was 8.35 µM. The TGI (HL-60(TB) leukemia) was > 19.9 µM, the GI50 (NCI-H23 lung) was 9.54 µM and the TGI (NCI-H23 lung) was > 25 µM. The GI50 (HCT-15 colon) was 16.1 µM, the TGI (HCT-15 colon) was > 25 µM and the GI50 (SK-MEL-2 melanoma) was 8.72 µM. For the same compound, the TGI (SK-MEL-2 melanoma) was > 25 µM, the GI50 (CCRF-CEM leukemia) was > 18.9 µM and the TGI (CCRF-CEM leukemia) was > 25 µM. The GI50 (SK-MEL-5 melanoma) was 10.5 µM, the TGI (SK-MEL-5 melanoma) was > 25 µM and the GI50 (SF-539 CNS) was 7.76 µM. The TGI (SF-539 CNS) was > 25 µM, the GI50 (UACC-257 melanoma) was > 19.2 µM and the TGI (UACC-257 melanoma) was > 25 µM. For the same compound, the GI50 (LOX IMVI melanoma) was 10.7 µM, the TGI (LOX IMVI melanoma) was > 25 µM and the GI50 (OVCAR-4 ovarian) was > 25 µM. For the same compound, the TGI (OVCAR-4 ovarian) was > 25 µM, the GI50 (EKVX NSCLC) was 15.1 µM and the TGI (EKVX NSCLC) was > 25 µM. The GI50 (HOP-92 NSCLC) was 6.13 µM, the TGI (HOP-92 NSCLC) was > 25 µM and the GI50 (SNB-19 CNS) was 12.7 µM. For the same compound, the TGI (SNB-19 CNS) was > 25 µM, the GI50 (MOLT-4 leukemia) was > 25 µM and the TGI (MOLT-4 leukemia) was > 25 µM. For the same compound, the GI50 (MDA-MB-231 breast) was > 25 µM, the TGI (MDA-MB-231 breast) was > 25 µM and the GI50 (MDA-MB-435) was 13.7 µM. For the same compound, the TGI (MDA-MB-435) was > 25 µM, the GI50 (TK-10 renal) was 10.3 µM and the TGI (TK-10 renal) was > 25 µM. The GI50 (SR leukemia) was 6.88 µM, the TGI (SR leukemia) was > 25 µM and the GI50 (HT29 colon) was 16.3 µM. For the same compound, the TGI (HT29 colon) was > 25 µM, the GI50 (CAKI-1 renal) was 15.9 µM and the TGI (CAKI-1 renal) was > 25 µM. The GI50 (T-47D breast) was 8.93 µM, the TGI (T-47D breast) was > 25 µM and the GI50 (HOP-62 NSCLC) was > 13.6 µM. The TGI (HOP-62 NSCLC) was > 25 µM, the GI50 (SK-MEL-28 melanoma) was 8.13 µM and the TGI (SK-MEL-28 melanoma) was > 25 µM. For the same compound, the GI50 (UACC-62 melanoma) was 10.9 µM, the TGI (UACC-62 melanoma) was > 25 µM and the GI50 (UO-31 renal) was 15.3 µM. The TGI (UO-31 renal) was > 25 µM, the GI50 (MALME-3M melanoma) was > 25 µM and the TGI (MALME-3M melanoma) was > 25 µM. For the same compound, the GI50 (BT-549 breast) was > 14.1 µM, the TGI (BT-549 breast) was > 25 µM and the GI50 (SF-268 CNS) was 8.24 µM. For the same compound, the TGI (SF-268 CNS) was > 25 µM, the GI50 (HS 578T breast) was 8.14 µM and the TGI (HS 578T breast) was > 25 µM. The GI50 (OVCAR-5 ovarian) was 9.68 µM, the TGI (OVCAR-5 ovarian) was > 25 µM and the GI50 (ACHN renal) was 6.41 µM. For the same compound, the TGI (ACHN renal) was > 25 µM, the GI50 (HCT-116 colon) was 8.3 µM and the TGI (HCT-116 colon) was > 25 µM. The GI50 (786-0 renal) was 9.67 µM and the TGI (786-0 renal) was > 25 µM.
